For this test, the target named is T1, 5-hydroxytryptamine receptor 1A (Homo sapiens, UniProt P08908).
T1 sequence (P08908 whole entry): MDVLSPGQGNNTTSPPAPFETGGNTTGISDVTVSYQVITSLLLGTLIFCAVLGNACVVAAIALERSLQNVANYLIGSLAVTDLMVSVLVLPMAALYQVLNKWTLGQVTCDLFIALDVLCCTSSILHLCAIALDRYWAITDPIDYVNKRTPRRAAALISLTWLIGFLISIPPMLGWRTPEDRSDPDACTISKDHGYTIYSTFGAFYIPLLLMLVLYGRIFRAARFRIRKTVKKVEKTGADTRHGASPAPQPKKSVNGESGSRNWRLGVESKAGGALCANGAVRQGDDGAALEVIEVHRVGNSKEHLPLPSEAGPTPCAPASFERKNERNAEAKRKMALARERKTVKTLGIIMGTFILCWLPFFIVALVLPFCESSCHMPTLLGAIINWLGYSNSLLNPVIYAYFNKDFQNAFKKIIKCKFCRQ
The test is described as follows: Antagonist activity at 5HT1A. It is filed as functional.
The Ki is a dissociation constant, usually derived from enzyme kinetics or from competition with a known ligand. With `Cc1ccc2cccc(N3CCN(CCC(O)c4csc5ccc(F)cc45)CC3)c2n1` (centres undefined), the Ki is 2.51 nM.

The molecule `CC1CN(CCC(O)c2csc3ccc(F)cc23)CCN1c1cccc2c1OCO2` (centres undefined) showed a Ki of 9.33 nM.

Regarding `COc1ccccc1N1CCN(CCC(O)c2csc(C)c2)CC1` (centres undefined), the inhibition constant Ki was 372 nM.

Regarding `Cc1ccc2cccc(N3CCN(CCC(O)c4csc5ccccc45)CC3)c2n1` (centres undefined), the Ki was 10.2 nM.

Take `COc1ccccc1N1CCN(CCC(=O)c2ccsc2)CC1`: the Ki is 60.3 nM.

The molecule `Cc1cc(C(O)CCN2CCN(c3ccccc3O)CC2)c(C)s1` (centres undefined) had a Ki of 89.1 nM.

Consider `OC(CCN1CCN(c2cccc3ncccc23)CC1)c1csc2ccccc12` (centres undefined), for which affinity was put at a Ki of 37.2 nM.

For the molecule `OC(CCN1CCN(c2cccc3ccccc23)CC1)c1csc2ccccc12` (centres undefined), the Ki was 66.1 nM.

`OC(CCN1CCN(c2cnc3ccccc3c2)CC1)c1csc2ccccc12` (centres undefined) had a Ki of 1000 nM.

As for `COc1ccccc1N1CCN(CCC(Oc2ccc3c(c2)OCO3)c2ccccc2)CC1` (centres undefined), the Ki is 20 nM.

In turn, `COc1ccccc1N1CCN(CCC(Oc2cccc3ccccc23)c2ccsc2)CC1` (centres undefined) showed a Ki of 182 nM.

`OC(CCN1CCN(c2ncccn2)CC1)c1ccccc1` (centres undefined) gave a Ki of 372 nM.

`COc1ccc(OC(CCN2CCN(c3ccccc3OC)CC2)c2ccccc2)cc1` (centres undefined) had a Ki of 89.1 nM.

For `OC(CCN1CCN(c2ccccc2Cl)CC1)c1ccsc1` (centres undefined), the Ki is 5010 nM.

In turn, `COc1ccccc1N1CCN(CCC(=O)c2cc(C)sc2C)CC1` gave a Ki of 5010 nM.

Molecule `COc1ccccc1N1CCN(CCC(O)c2ccc(-c3ccccc3)cc2)CC1` (centres undefined) showed a Ki of 851 nM.

In the case of `FC(F)(F)c1ccc(OC(CCN2CCN(c3ccc(Cl)cc3)CC2)c2ccccc2)cc1` (centres undefined), the Ki is 5010 nM.

For `COc1ccccc1N1CCN(CCC(Oc2ccc3c(c2)OCO3)c2ccsc2)CC1` (centres undefined), the inhibition constant Ki is 55 nM.

Take `COc1ccccc1N1CCN(CCC(O)c2ccc([N+](=O)[O-])cc2)CC1` (centres undefined): the affinity, expressed as Ki, was 10 nM.

As for `OC(CCN1CCN(c2ccc(F)cc2)CC1)c1ccccc1` (centres undefined), the affinity, expressed as Ki, was 145 nM.

In the case of `OC(CCN1CCN(c2ccc3ncccc3c2)CC1)c1csc2ccccc12` (centres undefined), affinity was put at a Ki of 550 nM.

`COc1ccccc1N1CCN(CCC(=O)c2ccc([N+](=O)[O-])cc2)CC1` showed a Ki of 50.1 nM.

Consider `OC(CCN1CCN(c2cccc3c2OCCO3)CC1)c1csc2ccc(F)cc12` (centres undefined), for which the affinity corresponds to a Ki of 6.03 nM.

Molecule `Oc1ccccc1N1CCN(CCC(O)c2ccc3ccccc3c2)CC1` (centres undefined) showed a Ki of 191 nM.

Regarding `COc1ccccc1N1CCN(CCC(Oc2cccc3ccccc23)c2cccs2)CC1` (centres undefined), affinity was put at a Ki of 219 nM.

Molecule `OC(CCN1CCN(c2cccc3c2OCCCO3)CC1)c1csc2ccccc12` (centres undefined) had a Ki of 1.91 nM.

In the case of `O=C(CCN1CCN(c2ccccc2O)CC1)c1ccc2ccccc2c1`, affinity was put at a Ki of 1000 nM.

For the molecule `OC(CCN1CCN(c2cccc3cccnc23)CC1)c1csc2ccc(F)cc12` (centres undefined), the affinity corresponds to a Ki of 2.69 nM.

Turning to `COc1cc(F)ccc1N1CCN(CCC(=O)c2cc(C)sc2C)CC1`, the affinity corresponds to a Ki of 12.9 nM.

Molecule `OC(CCN1CCN(c2ccc3sccc3c2)CC1)c1csc2ccccc12` (centres undefined) showed a Ki of 1580 nM.

`OC(CCN1CCN(c2cccc3c2OCCCO3)CC1)c1csc2ccc(F)cc12` (centres undefined) had a Ki of 3.02 nM.

Consider `OC(CCN1CCN(c2cccc3cccnc23)CC1)c1csc2ccccc12` (centres undefined), for which the Ki was 550 nM.

With `COc1ccccc1N1CCN(CC/C(=N\O)c2csc3ccccc23)CC1`, the Ki is 794 nM.

`Cc1cc(C(=O)CCN2CCN(c3cccc4ccccc34)CC2)c(C)s1` gave a Ki of 5010 nM.

For the origin of these results see ChEMBL document CHEMBL1157053, “Pharmacophore-based 3D QSAR studies on a series of high affinity 5-HT1A receptor ligands” (Eur J Med Chem, 2010).
